This is an account of results in US20230029570A1, “Bacillus Strain for Applications in Agriculture, Livestock Health and Environmental Protection” (Locus IP Company, LLC, priority 2020, published 2023).

One assay concerns Staphylococcus sp. Description: Reduction in optical density at 600 nm of Staphylococcus sp. cultures treated with cleaning compositions. Type of assay: cell-based. Here is the method: Cleaning compositions according to embodiments of the subject invention were also tested for their ability to control a Gram-positive Staphylococcus sp. Reduction in optical density at 600 nm (OD) was measured for cultures treated with each of the following compositions: […]

The subject of a further assay is E. coli. As to the kind of experiment: Reduction in optical density at 600 nm of E. coli cultures treated with cleaning compositions. Type of assay: cell-based. The note with it: 250 ppm. Here is the method:
The lipopeptide mixture produced by B. amy can be used in environmentally-friendly cleaning compositions and to enhance antimicrobial activity of other biosurfactants. Cleaning compositions were tested for their ability to control Gram-negative E. coli. Reduction in optical density at 600 nm (OD) was measured for cultures treated with each of the following compositions: […]

In the case of linear SLP butyl ester, the “OD600 % reduction after 2 hours” value is on record as 88.1% in the assay with Staphylococcus sp. (250 ppm) and 91.5% with E. coli.
With linear SLP ethyl ester, the “OD600 % reduction after 2 hours” value was determined as 98.3% in the assay on Staphylococcus sp. (100 ppm) and 89.8% with E. coli.
As for linear SLP isopropyl ester, the “OD600 % reduction after 2 hours” value was 91.5% in the assay with Staphylococcus sp. (50 ppm) and 86.4% with E. coli.
